How the values were obtained:
[1] = test system: RS4;11 cells carrying different Bcl-2 mutation; test: Cell viability CTG assay in RS4;11 cells, wild type and Bcl-2 mutants; format: cell-based, human
Procedure: (§1) Cell viability was determined using CellTiter-Glo® luminescent cell viability assay (Promega) or WST assay (Cell counting Kit-8, Shanghai life iLab, China) by following manufacturer's instruction. Cell viability was calculated as cell viability=(mean RLU sample−mean RLU blank)/(RLU cell control−RLU blank)×100. IC50 value was calculated using GraphPad Prism. Combination index (CI) value was calculated by CalcuSyn software (BIOSOFT, UK). CI<0.9 indicate a synergistic combination effect. CI<0.1 scored as 5+ indicates very strong synergistic combination effect, CI between 0.1 and 0.3 scored as 4+ indicates strong synergistic combination effect, CI between 0.3 and 0.7 scored as 3+ indicates medium synergistic combination effect. Method used was the cell viability CTG assay. RS4;11 cells were established from the bone marrow of a patient with acute lymphoblastic leukemia (ALL).

[2] = test system: KMS27 drug-resistant (DTEP) clones; test: Venetoclax-resistant DTEP clones of KMS27 MM cell line: proliferation and apoptosis; format: cell-based
Text: Compared with the parent cells, IC50 is increased by at least 3 to 10 times.

[3] = test system: MM1.S; test: Cell death in Venetoclax-resistant MM cell line MM1.S; format: cell-based; details: compared with Venetoclax and Navitoclax
[4] = test system: RPMI 8226 cells; test: Cell viability CTG assay in BCL-2i insensitive RPMI 8226 MM cells; format: cell-based
Procedure: as §1, with “effect.” for “effect. Method used was the cell viability CTG assay. RS4;11 cells were established from the bone marrow of a patient with acute lymphoblastic leukemia (ALL).”
Method used was the cell viability CTG assay.

[5] = test system: primary MM cells; test: Primary MM cells from 4 MM patients in vitro; format: cell-based, human; details: compared with venetoclax
Text: The activity of compound E was confirmed in primary MM cells in vitro.

[6] = test system: KMS34; test: Cell death in Venetoclax-resistant MM cell line KMS34; format: cell-based; details: compared with Venetoclax and Navitoclax
[7] = test system: NCI-H929; test: Cell viability CTG assay in BCL-2i resistant MM model NCI-H929; format: cell-based; details: insensitive or resistant to BCL-2 inhibitor
Procedure: as §1, with “effect.” for “effect. Method used was the cell viability CTG assay. RS4;11 cells were established from the bone marrow of a patient with acute lymphoblastic leukemia (ALL).”
Method used was the cell viability CTG assay. BCL-2i resistant MM mode NCI-H929 was established.

[8] = test system: KMS34; test: CDX model of KMS34; format: in vivo
[9] = test system: platelet; details: compared with Compound E; cited from earlier work
[10] = test system: MM1.S; test: CDX model of MM1.S; format: in vivo

CCN1[C@@H](C(=O)NC23CCC(C(=O)O)(CC2)CC3)[C@H](c2cccc(Cl)c2F)[C@]2(C(=O)Nc3cc(Cl)ccc32)C12CCCCC2 [APG-115]
cell viability ([1]; RS4;11-WT and RS4;11 carrying G101V, D103E, V156D, G101V-D103E, CTG): effectively decrease cell viability | IC50 (CTG 72 h) compared with ABT-199 (venetoclax) ([1]; all RS4;11 cell lines (WT and Bcl-2 mutants), 72 h): lower than those of ABT-199 (venetoclax) in all cell lines

Cc1c(S(C)(=O)=O)c(-c2cc(F)cc(N3CCN(c4ccc(NS(=O)(=O)c5ccc(N[C@H](CCN6CCC(C(=O)O)CC6)CSc6ccccc6)c(S(=O)(=O)C(F)(F)F)c5)cc4)CC3)c2)c(-c2ccc(Cl)cc2)n1C(C)C [APG-1252M1]
apoptosis [2]: induced apoptosis | proliferation of drug-resistant clones ([2]; compared with Venetoclax): successfully inhibited the proliferation of drug-resistant clones | cell death induction [3]: the most effective in inducing cell death | inhibition of cell proliferation ([4]; RPMI 8226 model, insensitive to BCL-2 inhibitor): single agent activity in inhibiting cell proliferation | activity in primary MM cells [5]: higher than venetoclax | cell death induction [6]: the most effective in inducing cell death

CN[C@@H](C)C(=O)N[C@H]1CN(S(=O)(=O)c2cccc(S(=O)(=O)N3CC[C@H]4CC[C@@H](C(=O)NC(c5ccccc5)c5ccccc5)N4C(=O)[C@@H](NC(=O)[C@H](C)NC)C3)c2)CC[C@H]2CC[C@@H](C(=O)NC(c3ccccc3)c3ccccc3)N2C1=O [APG-1387]
inhibition of cell proliferation [7]: single agent activity to inhibit cell proliferation

O=C(NS(=O)(=O)c1ccc(NC[C@H]2COCCO2)c([N+](=O)[O-])c1)c1ccc(N2CCN(CC3=C(c4ccc(Cl)cc4)CC4(CCC4)CC3)CC2)cc1Oc1cnc2[nH]ccc2c1 [APG-2575, (S)—N-((4-(((1,4-dioxan-2-yl)methyl)amino)-3-nitrophenyl)sulfonyl)-2-((1H-pyrrolo[2,3-b]pyridin-5-yl)oxy)-4-(4-((6-(4-chlorophenyl)spiro[3.5]non-6-en-7-yl)methyl)piperazin-1-yl)benzamide]
IC50 ([4]; Homo sapiens, RPMI 8226 cells, CTG): 5.58 µM

Cc1c(S(C)(=O)=O)c(-c2cc(F)cc(N3CCN(c4ccc(NS(=O)(=O)c5ccc(N[C@H](CCN6CCC(C(=O)OCCCP(=O)(O)O)CC6)CSc6ccccc6)c(S(=O)(=O)C(F)(F)F)c5)cc4)CC3)c2)c(-c2ccc(Cl)cc2)n1C(C)C [compound D, (3R)-1-(3-(4-(4-(4-(3-(2-(4-chlorophenyl)-1-isopropyl-4-methylsulfonyl-5-methyl-1H-pyrrol-3-yl)-5-fluorophenyl)piperazin-1-yl)-phenylaminosulfonyl)-2-trifluoromethylsulfonyl-anilino)-4-phenylthio-butyl)-piperidine-4-carboxylic acid 3-phosphonopropyl ester]
efficacy in CDX model [8]: also effective | platelet toxicity [9]: lower platelet toxicity | efficacy in CDX model [10]: also effective

Reference: patent US20250099440A1, “A PHARMACEUTICAL COMBINATION AND USE THEREOF” (Ascentage Pharma (Suzhou) Co., Ltd., priority 2021, published 2025)
